Experimental data: ChEMBL document CHEMBL1153138, “2,4-Diaminopyrimidine MK2 inhibitors. Part II: Structure-based inhibitor optimization” (Bioorg Med Chem Lett, 2010)

How the values were obtained:
Parameters in all cases: dose 3 mg/kg, route intravenous
Conditions in all cases: in vivo
Rattus norvegicus [1] = assay: Half life in Sprague-Dawley rat at 3 mg/kg, iv; type: ADME, organism-based
Rattus norvegicus [2] = assay: Terminal Phase volume of distribution at steady state in Sprague-Dawley rat at 3 mg/kg, iv; type: ADME, organism-based
Rattus norvegicus [3] = assay: AUC in Sprague-Dawley rat at 3 mg/kg, iv; type: ADME, organism-based, Plasma
Rattus norvegicus [4] = assay: Clearance in Sprague-Dawley rat at 3 mg/kg, iv; type: ADME, organism-based

- t1/2 (Rattus norvegicus [1]): 5.5 h
- Vbeta (Rattus norvegicus [2]): 4 L/kg
- AUC (Rattus norvegicus [3]): 4200 ng·h/mL
- CL (Rattus norvegicus [4]): 28.3 mL/min/kg
Structure (SMILES): NCCCn1cc(-c2cc(-c3cc4ccccc4s3)c3[nH]ncc3c2)c2nc(N)ncc21
